According to patent publication US10538561B2, “Peptide for treating inflammatory diseases” (priority 2015, dated 2020):

Key:
in vitro = details: human
Description: The cells were then incubated for 72 hours. Percentage cytotoxicity was determined using MTT assay.

[1] = test system: Imiquimod (IMQ) induced psoriasis; assay: Imiquimod (IMQ) induced psoriasis model; format: in vivo, BALB/C mice
[2] = test system: Imiquimod (IMQ) induced psoriasis; assay: Imiquimod (IMQ) induced psoriasis model; format: in vivo, BALB/C mice; remark: listed apart in the source
Description: The Experiment was carried out in Imiquimod (IMQ) induced psoriasis model in mice. […] […] There was a trend in animals treated with IS-181 through s.c. in ear thickness (life phase), punch biopsy, spleen weight and histopathology. […] Thus, […] In the view of this, it may be worth to explore the potency of the peptide for the diseases where TNFα playing central role in pathogenesis.

[3] = test system: Human endothelial cells (EA.hy 926); assay: Inhibition of endothelial cell migration (wound); format: cell-based; details: for % Inhibition of migration with respect to respective 0 h control: EA.hy926, 14 h
Description: Cell line: Human endothelial cells (EA.hy 926); test item: IS 181; treatment regimen: single addition; concentration range: 0.1 μg/ml-1 mg/ml; sera condition: medium containing 10% FBS. […] The cells were then subjected to serum starved with medium containing 1% FBS for 24 hours. 24 hours post serum starvation, the wounds (straight line) were created in the middle of the well using a sterile 200 μl pipette tip. Cells were washed twice using DMEM followed by treatment with different concentrations of IS 181 in DMEM containing 10% FBS. Images of wound were taken at 0 h and 14 h at three points in single well and distance of wound closure was measured using Image J software. End point: image analysis of cell migration of different concentrations of IS 181 treated cells at 0 hour and after 14 hours of treatment. Percentage inhibition in cell migration of different concentrations of IS 181 treated cells were calculated after 14 h of treatment with respect to respective 0 hours (FIG. 13). […] (FIGS. 14A-14B).

PDGFRA (PDGFR alpha) = PDGFRA (PDGFR alpha) (Homo sapiens, UniProt P16234); assay: Biochemical kinase assay PDGFRA; details: cell free, read-out: inhibition of PDGFRA (PDGRFR alpha)
Description: Test system: cell free assays; test items: IS181; concentrations tested: 1 ng/ml-5000 μg/ml; Kinases: a) Cell free assays: EGFR (ErbB1); FLT1 (VEGFR1); JAK1; JAK3 MAP2K1 (MEK1); PDGFRA (PDGFR alpha); PRKCA (PKC alpha); b) cell based assay: JAK-STAT.

[4] = test system: Human Keratinocytes (HaCaT); assay: In vitro combination Anthralin and IS 181 (MTT); format: cell-based; details: 72 h
Description: (§1) Percentage cytotoxicity was determined using MTT assay.

[5] = In vitro combination Anthralin and IS 181 (MTT); format: cell-based, Human; details: human, HaCaT keratinocytes, read-out: percent inhibition of cell viability/cytotoxicity
Description: as §1

VEGF = VEGF inhibition in keratinocytes (ELISA); format: cell-based, Human; parameters: inhibition of VEGF secretion as compared to untreated (basal) levels: dose or concentration left out as unconfirmed; details: HaCaT; for % Inhibition of VEGF wrt untreated (basal) levels / Conc. of VEGF: 24 h
Description: Cell lines: Human Keratinocytes (HaCaT); test item: IS181; treatment regimen: single addition—24 hours; concentration range: 0.1 μg/ml-100 μg/ml. […] Cells were serum-starved for another 24 hours (0% FBS). Cells were treated with IS181 for 24 hours. Supernatants were collected and stored at −20° C. till analysed. Levels of VEGF were analysed in supernatants by ELISA. Percent inhibition of VEGF secretion was calculated with reference to untreated levels. Positive control: curcumin; retinoic acid (at non-cytotoxic concentrations).

[6] = test system: Human endothelial cells (EA.hy 926); assay: DNA fragmentation in endothelial cells; format: cell-based; details: for % induction of DNA fragmentation: EA.hy926, 48 h
Description: Cell lines: Human endothelial cells (EA.Hy 926); test item: IS 181; treatment regimen: multiple additions (2)—48 hours; concentration range: 100 μg/ml to 5000 μg/ml (Duplicate wells); sera condition: medium containing 1% FBS. […] Cells were lysed and fragmented DNA was precipitated using PEG/NaCl solution. The fragmented DNA was incubated with 0.2 μg/ml of Hoechst 33258 dye and fluorescence was read at 360 ex/460 em. End point: Percentage induction of DNA fragmentation with respect to untreated. Positive control: anthralin. IS 181 led to induction of DNA fragmentation in Ea.hy.926 cells at all the concentrations tested. […] The overall effect of IS 181 on induction of DNA fragmentation with respect to untreated in Ea.hy.926 cells ranged from 15.09% to 64.15% (FIGS. 10A-10B and Table-10).

PDGFRA (PDGFR alpha), sequence (P16234 24-1089): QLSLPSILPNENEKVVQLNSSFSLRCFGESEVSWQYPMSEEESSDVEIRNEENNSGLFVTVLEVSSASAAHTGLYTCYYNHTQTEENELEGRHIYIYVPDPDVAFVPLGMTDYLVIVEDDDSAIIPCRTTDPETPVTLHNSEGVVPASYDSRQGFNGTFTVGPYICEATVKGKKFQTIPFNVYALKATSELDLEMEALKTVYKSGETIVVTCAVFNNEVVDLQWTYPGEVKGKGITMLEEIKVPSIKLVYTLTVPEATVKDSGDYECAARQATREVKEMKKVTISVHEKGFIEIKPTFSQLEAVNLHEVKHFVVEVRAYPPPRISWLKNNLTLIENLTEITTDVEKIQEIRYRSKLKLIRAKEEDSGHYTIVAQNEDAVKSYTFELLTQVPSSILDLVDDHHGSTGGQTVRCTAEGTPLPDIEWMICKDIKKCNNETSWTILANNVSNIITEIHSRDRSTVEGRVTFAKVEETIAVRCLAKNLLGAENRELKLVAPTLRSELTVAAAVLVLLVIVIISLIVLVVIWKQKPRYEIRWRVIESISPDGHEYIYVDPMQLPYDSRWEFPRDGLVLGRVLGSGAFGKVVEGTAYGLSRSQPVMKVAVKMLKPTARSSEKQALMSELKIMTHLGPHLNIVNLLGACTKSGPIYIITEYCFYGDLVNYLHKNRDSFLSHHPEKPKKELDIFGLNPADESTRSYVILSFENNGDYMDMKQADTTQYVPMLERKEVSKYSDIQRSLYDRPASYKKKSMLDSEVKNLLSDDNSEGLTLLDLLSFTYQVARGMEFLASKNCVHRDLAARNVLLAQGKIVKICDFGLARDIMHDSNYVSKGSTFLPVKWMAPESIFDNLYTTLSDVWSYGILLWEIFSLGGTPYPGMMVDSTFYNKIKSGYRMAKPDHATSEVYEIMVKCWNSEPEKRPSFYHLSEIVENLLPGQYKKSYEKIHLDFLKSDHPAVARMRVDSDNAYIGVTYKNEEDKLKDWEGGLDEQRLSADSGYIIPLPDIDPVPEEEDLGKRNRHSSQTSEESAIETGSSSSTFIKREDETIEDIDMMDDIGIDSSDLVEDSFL

H-WVQRVVEKFLK-OH [IS181, H-Trp-Val-Gln-Arg-Val-Val-Glu-Lys-Phe-Leu-Lys-OH]
cytotoxicity at 72 h, 5000 μg/ml (in vitro; HaCaT keratinocyte cells): 96.1% | cytotoxicity at 72 h, 10 μg/ml (in vitro; HaCaT keratinocytes): 16.7% | cytotoxicity at 72 h, 50 μg/ml (in vitro; HaCaT keratinocytes): 17.8% | cytotoxicity at 72 h, 500 μg/ml (in vitro; HaCaT keratinocytes): 26.9% | cytotoxicity at 72 h, 1000 μg/ml (in vitro; HaCaT keratinocytes): 82.8% | cytotoxicity at 72 h, 2000 μg/ml (in vitro; HaCaT keratinocytes): 75% | ear thickness (life phase) ([1]; 1.2 mg/kg i.m. and i.p): mild reduction in ear thickness | spleen weight ([1]; i.p): mild reduction in spleen weight | histopathology ear thickness ([2]; 0.3 mg/kg, s.c.): maximum reduction in ear thickness | hyperkeratosis ([2]; 1.2 mg/kg i.m. and i.v.): reduction in hyperkeratosis | reduction in IL-23 (ear homogenate) compared to disease control ([2]; BALB/C mice, 0.3 mg/kg): 62.35% | reduction in TNFα (ear homogenate) compared to disease control ([2]; BALB/C mice, 0.3 mg/kg s.c.): 24.98% | reduction in TNFα (ear homogenate) compared to disease control ([2]; BALB/C mice, 1.2 mg/kg i.m.): 21.28% | dorsal skin thickness ([2]; across the groups except 0.6 mg/kg s.c. and 1.2 mg/kg i.m.): mild reduction in dorsal skin thickness, however which was not significant | punch biopsy weight ([2]; across the groups except 1.2 mg/kg, i.m.): mild reduction in punch biopsy weight, however which was not significant | IL-17A (ear homogenate) ([2]; across the treated groups): No changes in IL-17A | clinical score ([2]; across the treated groups): No substantial changes in clinical score | erythema index ([2]; across the treated groups): No changes in erythema index | ear thickness (life phase) compared to disease control ([2]; s.c.): mild reduction in ear thickness | edema compared to disease control ([2]; s.c. (1.2, 0.6 and 0.3 mg/kg)): reduction in edema | inflammatory cells infiltration compared to disease control ([2]; s.c. (1.2, 0.6 and 0.3 mg/kg) and 1.2 mg/kg i.v.): reduction in inflammatory cells infiltration | Rete peg proliferation ([2]; s.c. (at 1.2, 0.6 and 0.3, mg/kg)): reduction in Rete peg proliferation | spleen weight ([2]; s.c. route, 1.2 mg/kg): maximum reduction in spleen weight, however which was not significant | hyperkeratosis ([2]; s.c., 0.3 mg/kg): maximum effect | inhibition of migration of EA.hy926 cells ([3]; 10 μg/ml-1 mg/ml): 17%-54% | % Inhibition of migration with respect to respective 0 h control ([3]; 0.1 μg/ml): 0% | % Inhibition of migration with respect to respective 0 h control ([3]; 1 μg/ml): 0% | % Inhibition of migration with respect to respective 0 h control ([3]; 10 μg/ml): 17% | % Inhibition of migration with respect to respective 0 h control ([3]; 50 μg/ml): 34% | % Inhibition of migration with respect to respective 0 h control ([3]; 100 μg/ml): 41% | % Inhibition of migration with respect to respective 0 h control ([3]; 1 mg/ml): 54% | inhibition at 50 µg/mL (PDGFRA (PDGFR alpha); 50 μg/ml): 8% | inhibition at 100 µg/mL (PDGFRA (PDGFR alpha); 100 μg/ml): -10% | inhibition at 250 µg/mL (PDGFRA (PDGFR alpha); 250 μg/ml): -26% | inhibition at 500 µg/mL (PDGFRA (PDGFR alpha); 500 μg/ml): -49% | inhibition at 1000 µg/mL (PDGFRA (PDGFR alpha); 1000 μg/ml): -81% | inhibition at 2000 µg/mL (PDGFRA (PDGFR alpha); 2000 μg/ml): -147% | IC50 value of IS 181 ([4]; Anthralin 0 μM): 695.50 µg/mL | IC50 value of IS 181 ([4]; with Anthralin 0.01 μM): 872.80 µg/mL | IC50 value of IS 181 ([4]; with Anthralin 0.05 μM): 908.50 µg/mL | IC50 value of IS 181 ([4]; with Anthralin 0.1 μM): 677.60 µg/mL | cytotoxicity at 72 h, 10 μg/ml ([5]; IS 181 10 μg/ml alone): -10.4% | cytotoxicity at 72 h, 50 μg/ml ([5]; IS 181 50 μg/ml alone): -4.81% | cytotoxicity at 72 h, 100 μg/ml ([5]; IS 181 100 μg/ml alone): 8.16% | cytotoxicity at 72 h, 500 μg/ml ([5]; IS 181 500 μg/ml alone): 39.4% | cytotoxicity at 72 h, 1000 μg/ml ([5]; IS 181 1000 μg/ml alone): 62.4% | cytotoxicity at 72 h, 2000 μg/ml ([5]; IS 181 2000 μg/ml alone): 81.4% | cytotoxicity at 72 h, 5000 μg/ml ([5]; IS 181 5000 μg/ml alone): 94.2% | inhibition of VEGF secretion as compared to untreated (basal) levels (VEGF): 11.1%-17% | % Inhibition of VEGF wrt untreated (basal) levels (VEGF; 0.1 μg/ml): 17.0% | Conc. of VEGF (VEGF; 0.1 μg/ml): 2982.4 pg/mL | % Inhibition of VEGF wrt untreated (basal) levels (VEGF; 1 μg/ml): 12.6% | Conc. of VEGF (VEGF; 1 μg/ml): 3139.7 pg/mL | % Inhibition of VEGF wrt untreated (basal) levels (VEGF; 5 μg/ml): 11.1% | Conc. of VEGF (VEGF; 5 μg/ml): 3193.5 pg/mL | % Inhibition of VEGF wrt untreated (basal) levels (VEGF; 10 μg/ml): 12.9% | Conc. of VEGF (VEGF; 10 μg/ml): 3128.2 pg/mL | % Inhibition of VEGF wrt untreated (basal) levels (VEGF; 100 μg/ml): 0.7% | Conc. of VEGF (VEGF; 100 μg/ml): 3565.8 pg/mL | % induction of DNA fragmentation ([6]; 100 μg/ml): 15.09% | % induction of DNA fragmentation ([6]; 500 μg/ml): 22.64% | % induction of DNA fragmentation ([6]; 1000 μg/ml): 64.15% | % induction of DNA fragmentation ([6]; 2000 μg/ml): 56.60% | % induction of DNA fragmentation ([6]; 5000 μg/ml): 22.64% | overall effect on induction of DNA fragmentation with respect to untreated ([6]; Ea.hy.926, 48 h, 100 μg/ml to 5000 μg/ml): 15.09% to 64.15%
